US20250170267A1, “ANTIBODY-DRUG CONJUGATE PRECURSOR AND INTERMEDIATE FOR SYNTHESIS THEREOF” (UBE Corporation, priority 2022, published 2025)
Like-named read-outs stand apart in the source and are kept apart here. Numbered stars: 1 amine (or outer) side, 2 acyl side, 3 side chain; on linkers, the order of the positions; unused ones are H or OH. Square brackets hold non-standard residues; d marks the D form. Peptide text beside a SMILES is read from it. * marks the point of attachment. Dolaproine = CO[C@@H]([C@@H]1CCCN1)[C@@H](C)C(=O)O; X5 = C[C@@H](N[*:1])[C@@H](OC(=O)[*:2])c1ccccc1; NH(CH2CH2O)8Me = COCCOCCOCCOCCOCCOCCOCCOCCN*; X10 = COCCOC(=O)O[C@@H](c1ccccc1)[C@@H](C)N*; Dil = CC[C@H](C)[C@H](NC)[C@@H](CC(=O)O)OC; X3 = C[C@@H](N*)[C@@H](OP(=O)(O)O)c1ccccc1; X1 = C[C@@H](N*)[C@@H](O)c1ccccc1; NMeV = CN[C@H](C(=O)O)C(C)C; X8 = c1[nH]nnc1CN*

Key:
[1] = biological target: T1, porcine tubulin (Sus scrofa, UniProt P02550+P02554); assay: Tubulin polymerization inhibition test; type: biochemical
T1 construct: purchased Cytoskeleton, Inc. BK011P
Protocol: For measuring the tubulin polymerization inhibitory action, Tubulin Polymerization Assay Kit (manufactured by Cytoskeleton, Inc., BK011P) was used. A PIPES buffer containing porcine tubulin, GTP, MgCl2, EGTA, Glycerol, and a fluorescent reporter was prepared under ice-cooling as a reaction solution. The reaction solution was ice-cooled until it was used. A test compound solution was prepared by an aqueous solution containing 1.5% DMSO, and added to a 96 well plate (manufactured by Corning Inc., 3686) at 5 μL/well. The reaction solution was added thereto at 50 μL/well, the plate was placed in a microplate reader (FlexStation 3, manufactured by Molecular Device, LLC) in which the internal temperature was set to 37° C. in advance, and the fluorescence intensity measurement (excitation wavelength: 360 nm, detection wavelength: 420 nm) of each well was started. The fluorescence intensity was measured once every minute, and the measurement was continued for 60 minutes.
The tubulin polymerization inhibition rate (%) was calculated by the following equation.
[formula] • a: average amount of fluorescence intensity increase in vehicle-treated well (n=2) • b: average amount of fluorescence intensity increase in test compound-treated well (n=2)
Amount of fluorescence intensity increase: (average fluorescence intensity after 51 to 60 minutes from measurement start)−(average fluorescence intensity after 1 to 6 minutes from measurement start)

[2] = biological target: T2, human liver Cathepsin B (Homo sapiens, UniProt P07858); assay: Metabolism test using human liver Cathepsin B; type: in vitro ADME; settings: 37° C., 24 hours, released drug, LC-MS/MS
T2 construct: human liver Cathepsin B (manufactured by Sigma-Aldrich Co. LLC, Cat No. C8571 25 μg/vial); purchased Sigma-Aldrich Co. LLC C8571; host or cells: human liver
Protocol: To human liver Cathepsin B (manufactured by Sigma-Aldrich Co. LLC, Cat No. C8571 25 μg/vial)(corresponding to 400 Unit/mL)(5 μL), X10 Catabolic Buffer (manufactured by SEKISUI-Xenotech, LLC., K5200)(10 μL), 2.5 mM Bovine Serum Albumin (manufactured by FUJIFILM Wako Pure Chemical Corporation, Cat No. 012-15093)(5 μL), and distilled water (manufactured by FUJIFILM Wako Pure Chemical Corporation, for HPLC)(55 μL) was added 1.2 μM test compound (antibody-drug conjugate prepared in ADC Production examples)(25 μL) dissolved in PBS to prepare a reaction solution. After the reaction solution was incubated at 37° C. for 24 hours, “an antitumor drug molecule or an analog thereof, or a derivative thereof” released from the antibody-drug conjugate into the reaction solution was quantified by LC-MS/MS (high performance liquid chromatography/mass spectrometer system) under the following conditions. LC-MS/MS analysis conditions
(§1) LC: LC20 or LC30 HPLC system manufactured by Shimadzu Corporation
(§2) Column: Phenomenex Kinetex C18 (50×2.1 mm, 2.6 μm)
(§3) Column temperature: 40° C.
(§4) Mobile phase A: 0.1% aqueous solution of formic acid, Mobile phase B: 0.1% solution of formic acid in a mixture of 50% acetonitrile/methanol
(§5) Mode: Positive or Negative
(§6) The release rate (%) of drug was calculated by the following equation.

[3] = system: human liver lysosome; assay: Metabolism test using human liver lysosomal fraction; type: in vitro ADME; settings: 37° C., 24 hours, released drug, LC-MS/MS
Protocol: To a reaction composition solution (X10 Catabolic Buffer (manufactured by SEKISUI-Xenotech, LLC., K5200))(60 μL) in which human liver lysosome (manufactured by SEKISUI-Xenotech, LLC., Cat No. H610.L 2.5 mg/mL)(corresponding to 0.125 mg of protein) was suspended and distilled water (manufactured by FUJIFILM Wako Pure Chemical Corporation, for HPLC)(10 μL) was added 1.2 μM test compound (antibody-drug conjugate produced in ADC Production examples)(25 μL) dissolved in PBS to prepare a reaction solution. After the reaction solution was incubated at 37° C. for 24 hours, “an antitumor drug molecule or an analog thereof, or a derivative thereof” released from the antibody-drug conjugate into the reaction solution was quantified by LC-MS/MS (high performance liquid chromatography/mass spectrometer system) under the following conditions. LC-MS/MS analysis conditions
as §1, §2, §3, §4, §5, §6

[4] = porcine tubulin, 37° C., fluorescence over 60 minutes, read-out: IC50 value (tubulin polymerization inhibition)

T1 sequence (P02550 whole entry): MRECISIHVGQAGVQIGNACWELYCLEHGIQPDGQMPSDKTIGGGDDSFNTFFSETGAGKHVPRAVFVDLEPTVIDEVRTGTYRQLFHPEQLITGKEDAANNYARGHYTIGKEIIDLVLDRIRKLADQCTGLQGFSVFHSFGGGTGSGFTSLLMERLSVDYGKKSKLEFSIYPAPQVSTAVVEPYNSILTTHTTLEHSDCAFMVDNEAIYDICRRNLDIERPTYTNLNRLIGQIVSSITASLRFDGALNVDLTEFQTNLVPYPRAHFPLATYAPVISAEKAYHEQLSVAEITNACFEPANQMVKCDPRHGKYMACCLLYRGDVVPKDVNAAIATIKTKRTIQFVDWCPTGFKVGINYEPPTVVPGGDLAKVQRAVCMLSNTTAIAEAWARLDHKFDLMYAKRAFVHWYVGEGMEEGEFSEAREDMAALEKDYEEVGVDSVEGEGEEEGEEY
T1 sequence (P02554 whole entry): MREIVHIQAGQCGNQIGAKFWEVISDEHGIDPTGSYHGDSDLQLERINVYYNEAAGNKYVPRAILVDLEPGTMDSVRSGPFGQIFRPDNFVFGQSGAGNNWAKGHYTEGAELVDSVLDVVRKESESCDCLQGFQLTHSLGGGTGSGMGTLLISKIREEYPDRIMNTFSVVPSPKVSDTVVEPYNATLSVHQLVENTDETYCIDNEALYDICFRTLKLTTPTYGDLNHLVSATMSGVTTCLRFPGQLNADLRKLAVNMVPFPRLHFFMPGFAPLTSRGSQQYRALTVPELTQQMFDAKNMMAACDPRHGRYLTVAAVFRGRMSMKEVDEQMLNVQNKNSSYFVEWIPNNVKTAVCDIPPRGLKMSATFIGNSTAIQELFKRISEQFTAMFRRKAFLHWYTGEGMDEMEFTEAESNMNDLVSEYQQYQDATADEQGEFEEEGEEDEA

SMILES | IC50 [1, 4] [µM] | further results
CC[C@H](C)[C@@H]([C@@H](CC(=O)N1CCC[C@H]1[C@H](OC)[C@@H](C)C(=O)N[C@H](C)[C@@H](O)c1ccccc1)OC)N(C)C(=O)[C@@H](NC(=O)[C@H](C(C)C)N(C)C(=O)CNC(=O)CN)C(C)C [Example U-009] (H-GG[NMeV]V[Dil][Dolaproine]-X1) | ≤ 3 | –
CC[C@@]1(OC(=O)OCc2ccc(NC(=O)[C@H](CCCNC(N)=O)NC(=O)[C@@H](NC(=O)[C@H](CC(=O)N[C@H]3CCOC3=O)NC(=O)CCOCCOCCOCCOCCNC(=O)[C@H](CNC(=O)CCP(=O)(O)O)N3C(=O)C=CC3=O)C(C)C)cc2)C(=O)OCc2c1cc1n(c2=O)Cc2c-1nc1cc(F)c(C)c3c1c2[C@@H](NC(=O)CO)CC3 [Example 11] | – | Release rate (%) of drug from ADC [2]: 30%; Release rate (%) of drug from ADC [3]: 64%
CC[C@H](C)[C@@H]([C@@H](CC(=O)N1CCC[C@H]1[C@H](OC)[C@@H](C)C(=O)N[C@H](C)[C@@H](O)c1ccccc1)OC)N(C)C(=O)[C@@H](NC(=O)[C@H](C(C)C)N(C)CCCC(=O)N[C@H]1CCc2c(C)c(F)cc3nc4c(c1c23)Cn1c-4cc2c(c1=O)COC(=O)[C@]2(O)CC)C(C)C [Example U-017] | – | IC50 [1]: ≤ 3 µM
CC[C@H](C)[C@@H]([C@@H](CC(=O)N1CCC[C@H]1[C@H](OC)[C@@H](C)C(=O)N[C@H](C)[C@@H](OP(=O)(O)O)c1ccccc1)OC)N(C)C(=O)[C@@H](NC(=O)[C@H](C(C)C)N(C)C)C(C)C [Example U-031] | ≤ 3 | –
CC[C@H](C)[C@@H]([C@@H](CC(=O)N1CCC[C@H]1[C@H](OC)[C@@H](C)C(=O)N[C@H](C)[C@@H](O)c1ccccc1)OC)N(C)C(=O)[C@@H](NC(=O)[C@H](C(C)C)N(C)C)C(C)C [Example U-010] | – | IC50 [1]: ≤ 3 µM
CC[C@H](C)[C@@H]([C@@H](CC(=O)N1CCC[C@H]1[C@H](OC)[C@@H](C)C(=O)N[C@H](C)[C@@H](OP(=O)(O)O)c1ccccc1)OC)N(C)C(=O)[C@@H](NC(=O)[C@@H](NC)C(C)C)C(C)C [Example U-030] (H-[NMeV]V[Dil][Dolaproine]-X3) | ≤ 3 | –
CC[C@H](C)[C@@H]([C@@H](CC(=O)N1CCC[C@H]1[C@H](OC)[C@@H](C)C(=O)N[C@H](C)[C@@H](OC(=O)NCCOCCOCCOCCOCCOCCOCCOCCOC)c1ccccc1)OC)N(C)C(=O)[C@@H](NC(=O)[C@@H](NC)C(C)C)C(C)C [Example U-011] (H-[NMeV]V[Dil][Dolaproine][X5]-{NH(CH2CH2O)8Me}) | ≤ 3 | –
CC[C@H](C)[C@@H]([C@@H](CC(=O)N1CCC[C@H]1[C@H](OC)[C@@H](C)C(=O)N[C@H](C)[C@@H](OC(=O)NCc1c[nH]nn1)c1ccccc1)OC)N(C)C(=O)[C@@H](NC(=O)[C@@H](NC)C(C)C)C(C)C [Example U-021] (H-[NMeV]V[Dil][Dolaproine][X5]-X8) | ≤ 3 | –
CC[C@@]1(O)C(=O)OCc2c1cc1n(c2=O)Cc2c-1nc1cc(F)c(C)c3c1c2[C@@H](NC(=O)COP(=O)(O)OCc1ccc(NC(=O)[C@H](CCCNC(N)=O)NC(=O)[C@@H](NC(=O)[C@H](CC(=O)N[C@H]2CCOC2=O)NC(=O)CCOCCOCCOCCOCCNC(=O)[C@H](CNC(=O)CCP(=O)(O)O)N2C(=O)C=CC2=O)C(C)C)cc1)CC3 [Example 12] | – | Release rate (%) of drug from ADC [2]: 106%; Release rate (%) of drug from ADC [3]: 3.5%
CC[C@H](C)[C@@H]([C@@H](CC(=O)N1CCC[C@H]1[C@H](OC)[C@@H](C)C(=O)N[C@H](C)[C@@H](OC(=O)OCCOC)c1ccccc1)OC)N(C)C(=O)[C@@H](NC(=O)[C@@H](NC)C(C)C)C(C)C [Example U-012] (H-[NMeV]V[Dil][Dolaproine]-X10) | ≤ 3 | –
